Laboratory results from publication PMC8524670 (Pharmacology Research & Perspectives, 2021).

What was measured:
CYP1A2 = molecular target: T1, CYP1A2 (Homo sapiens, UniProt P05177); assay: biochemical; assay type: in vitro ADME
T1 sequence (P05177 1-516): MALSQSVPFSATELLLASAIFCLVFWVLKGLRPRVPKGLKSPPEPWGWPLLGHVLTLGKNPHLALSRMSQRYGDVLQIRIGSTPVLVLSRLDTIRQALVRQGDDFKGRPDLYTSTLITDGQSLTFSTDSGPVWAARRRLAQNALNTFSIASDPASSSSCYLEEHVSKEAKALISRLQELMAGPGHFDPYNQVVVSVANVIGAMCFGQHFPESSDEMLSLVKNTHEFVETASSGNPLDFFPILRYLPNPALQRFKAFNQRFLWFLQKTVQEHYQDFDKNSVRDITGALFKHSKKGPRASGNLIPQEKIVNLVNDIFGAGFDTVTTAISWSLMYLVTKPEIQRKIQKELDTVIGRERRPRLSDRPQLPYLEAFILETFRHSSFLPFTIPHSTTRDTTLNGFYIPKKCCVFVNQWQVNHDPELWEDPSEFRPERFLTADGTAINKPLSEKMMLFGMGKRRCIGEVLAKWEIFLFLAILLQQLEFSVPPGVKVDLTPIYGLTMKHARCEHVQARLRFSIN

OATP1B3 = molecular target: T2, OATP1B3 (Homo sapiens, UniProt Q9NPD5); assay: SLC transportation assay in HEK293 cells; assay type: in vitro ADME; settings: uptake ratios <2 at 0.1, 0.3, 5 µM
T2 sequence (Q9NPD5 1-702): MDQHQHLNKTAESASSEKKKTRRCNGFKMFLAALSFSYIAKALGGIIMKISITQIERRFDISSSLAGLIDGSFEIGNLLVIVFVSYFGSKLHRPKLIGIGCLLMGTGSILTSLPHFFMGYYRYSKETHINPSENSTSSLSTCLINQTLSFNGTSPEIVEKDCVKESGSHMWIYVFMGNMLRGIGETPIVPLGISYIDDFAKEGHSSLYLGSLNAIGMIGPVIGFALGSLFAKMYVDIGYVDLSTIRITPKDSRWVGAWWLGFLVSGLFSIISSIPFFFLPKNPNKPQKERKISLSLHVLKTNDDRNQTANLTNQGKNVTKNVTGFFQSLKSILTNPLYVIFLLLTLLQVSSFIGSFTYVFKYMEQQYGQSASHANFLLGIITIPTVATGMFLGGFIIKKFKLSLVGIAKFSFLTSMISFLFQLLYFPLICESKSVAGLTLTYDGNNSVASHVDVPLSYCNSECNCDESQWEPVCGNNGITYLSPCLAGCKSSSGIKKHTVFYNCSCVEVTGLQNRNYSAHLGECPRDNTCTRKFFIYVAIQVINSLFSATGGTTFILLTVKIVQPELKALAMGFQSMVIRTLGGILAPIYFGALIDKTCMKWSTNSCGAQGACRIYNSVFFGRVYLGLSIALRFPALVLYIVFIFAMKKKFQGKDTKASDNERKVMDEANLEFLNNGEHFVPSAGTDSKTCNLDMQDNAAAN

OAT3 = molecular target: T3, OAT3 (Homo sapiens, UniProt Q8TCC7); assay: SLC transportation assay in HEK293 cells; assay type: in vitro ADME; settings: uptake ratios <2 at 0.1, 0.3, 5 µM
T3 sequence (Q8TCC7 1-542): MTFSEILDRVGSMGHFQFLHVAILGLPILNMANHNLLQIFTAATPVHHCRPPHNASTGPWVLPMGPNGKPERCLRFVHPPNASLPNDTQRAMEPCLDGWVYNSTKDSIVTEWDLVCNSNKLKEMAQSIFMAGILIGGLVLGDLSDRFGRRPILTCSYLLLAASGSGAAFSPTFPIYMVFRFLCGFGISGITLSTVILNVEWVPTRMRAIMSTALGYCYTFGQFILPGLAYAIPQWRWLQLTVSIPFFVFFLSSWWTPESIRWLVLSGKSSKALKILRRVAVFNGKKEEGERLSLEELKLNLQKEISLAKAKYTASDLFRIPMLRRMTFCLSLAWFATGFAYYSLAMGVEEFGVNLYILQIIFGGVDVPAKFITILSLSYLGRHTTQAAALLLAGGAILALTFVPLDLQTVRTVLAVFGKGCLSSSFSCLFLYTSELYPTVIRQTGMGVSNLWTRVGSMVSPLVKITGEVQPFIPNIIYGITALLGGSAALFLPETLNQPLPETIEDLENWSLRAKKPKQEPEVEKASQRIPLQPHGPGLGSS

CYP2C8 = molecular target: T4, CYP2C8 (Homo sapiens, UniProt P10632); assay: CYP reversible inhibition in HLMs; settings: amodiaquine
T4 sequence (P10632 1-490): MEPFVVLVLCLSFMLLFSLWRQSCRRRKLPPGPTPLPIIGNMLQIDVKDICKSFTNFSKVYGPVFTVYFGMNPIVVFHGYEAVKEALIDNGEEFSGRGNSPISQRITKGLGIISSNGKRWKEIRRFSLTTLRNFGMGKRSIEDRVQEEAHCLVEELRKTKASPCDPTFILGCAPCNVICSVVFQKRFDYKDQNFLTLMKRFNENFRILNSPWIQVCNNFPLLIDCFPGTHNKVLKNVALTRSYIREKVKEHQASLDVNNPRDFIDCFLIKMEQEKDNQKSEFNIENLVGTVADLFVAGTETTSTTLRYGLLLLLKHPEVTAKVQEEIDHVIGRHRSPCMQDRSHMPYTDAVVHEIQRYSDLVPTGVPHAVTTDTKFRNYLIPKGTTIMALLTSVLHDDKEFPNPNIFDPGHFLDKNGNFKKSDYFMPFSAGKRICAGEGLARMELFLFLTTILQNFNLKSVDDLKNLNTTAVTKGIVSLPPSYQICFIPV

OAT1 = molecular target: T5, OAT1 (Homo sapiens, UniProt Q4U2R8); assay: SLC transportation assay in HEK293 cells; settings: uptake ratios <2 at 0.1, 0.3, 5 µM
T5 sequence (Q4U2R8 1-563): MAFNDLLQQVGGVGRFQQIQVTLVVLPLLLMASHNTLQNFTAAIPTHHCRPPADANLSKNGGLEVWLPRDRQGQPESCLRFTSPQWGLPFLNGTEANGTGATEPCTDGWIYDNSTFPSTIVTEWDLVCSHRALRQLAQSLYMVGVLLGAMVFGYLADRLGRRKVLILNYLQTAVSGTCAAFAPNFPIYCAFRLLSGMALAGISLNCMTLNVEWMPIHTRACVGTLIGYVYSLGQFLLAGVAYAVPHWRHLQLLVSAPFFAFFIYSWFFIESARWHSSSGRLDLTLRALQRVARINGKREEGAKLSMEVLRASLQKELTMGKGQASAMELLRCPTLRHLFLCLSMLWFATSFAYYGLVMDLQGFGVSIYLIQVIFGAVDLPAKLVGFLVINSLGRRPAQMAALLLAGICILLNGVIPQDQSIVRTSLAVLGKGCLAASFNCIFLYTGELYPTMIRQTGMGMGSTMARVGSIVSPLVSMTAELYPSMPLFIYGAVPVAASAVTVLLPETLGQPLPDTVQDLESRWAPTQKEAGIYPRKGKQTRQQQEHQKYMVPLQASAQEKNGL

Question: For `C=CC(=O)N1CCC([C@@H]2CCNc3c(C(N)=O)c(-c4ccc(Oc5ccccc5)cc4)nn32)CC1` [zanubrutinib], which IC50 (CYP1A2) is on record?
Answer: The IC50 was 121 µM.

Question: What about the Ki (CYP1A2; Ki, phenacetin, Ki = IC50/2) of the same molecule?
Answer: Its Ki is 60.5 µM.

Question: What about the Ki (CYP1A2; Kiu, phenacetin, unbound Ki) of the same molecule?
Answer: The Ki was 47.8 µM.

Question: What about the R1 (CYP1A2; phenacetin, DDI basic model, hepatic) of the same molecule?
Answer: The R1 was 1.00.

Question: And the Ah (CYP1A2; phenacetin, static model term, liver inhibition)?
Answer: The Ah was 1.00.

Question: And the Substrate status (OATP1B3)?
Answer: The Substrate status was “unlikely to be a substrate”.

Question: And the Substrate status (OAT3)?
Answer: The Substrate status was “unlikely to be a substrate”.

Question: And the R1 (CYP2C8; DDI basic model, hepatic)?
Answer: The R1 was 1.05.

Question: And the Ah (CYP2C8; static model term, liver inhibition)?
Answer: The Ah was 0.95.

Question: And the Substrate status (OAT1)?
Answer: Its Substrate status is “unlikely to be a substrate”.
